Patent US20100143972A1, “Method of Making Cyclic Polypeptides with Inteins” (priority 2006, published 2010)
“Also recorded” adds a separate entry of the source. No end group written: not given here.

Assays:
AH430 (Agr-II reporter) = format: cell-based, S. aureus
Experimental: (§1) AIP inhibition assays. For monitoring inhibition of the Agr system, an overnight culture of the appropriate reporter strain was inoculated into TSB with chloramphenicol and grown to an optical density of 0.05 (0.25 for AH431) at 600 nm. In triplicate, 475 μl of reporter culture was aliquoted into test tubes (13×100 mm) and 25 μl of spent media or intein-generated AIP was added to each tube. As controls, separate tubes were prepared with the addition of either 25 μl of TSB or chitin elution buffer. The tubes were shaken at 250 rpm at 37° C. and assayed at the following times unless otherwise indicated: AH429, 12 hrs; AH430, 3 hrs; AH431, 4 hrs. Both cell density (optical density, 595 nm) and GFP fluorescence (excitation at 485 nm, emission at 535 nm) was measured in a Tecan GENios microtiter plate reader (Research Triangle Park, N.C.) by removing 100 μl from each tube and assaying in a microtiter plate (Corning 3606 plates). Fluorescence is reported as an average of the three samples. Control AIP samples were prepared from the appropriate S. aureus producing strains. Each strain was grown in TSB until an optical density at 600 nm of ˜2.0-2.5, the cells were pelleted, and the supernatant was filtered through a 0.2 micro syringe filter. The filtered supernatants were stored at 4° C. and used within 48 hrs.
The intein fusions were kept on resin in the presence of buffer with TCEP, a non-thiol reducing agent, added to maintain DnaB activity and keep the AIP cysteine reduced. Following incubation, the resin buffer was eluted and tested for biological activity. The bioassay is based on the observation that there are three inhibition classes among S. aureus Agr systems (FIG. 1). An S. aureus Agr-II reporter strain, AH430, has a plasmid with the RNAIII transcript promoter driving GFP expression.
Agr reporter strains. To test the iAIPs, reporter strains had to be developed for each of the Agr-I, Agr-II, and Agr-III systems. […]

[1] = test system: Strain AH431 (Agr-III reporter); assay: AIP inhibition assay, Agr-III reporter (RNAIII promoter driving GFP); format: cell-based, S. aureus; settings: sample diluted 20-fold into AH431 culture
Experimental: as §1
(§2) Agr reporter strains. […]

[2] = test system: Strain AH429 (Agr-I reporter); assay: AIP inhibition assay, Agr-I reporter (RNAIII promoter driving GFP); format: cell-based, S. aureus; settings: sample diluted 20-fold into AH429 culture; GFP compared to TSB control
Experimental: as §1, §2

[3] = test system: S. aureus Agr-I (AH462) reporter strain; assay: AIP activation assay, Agr-I reporter; format: cell-based; settings: 50 nM iAIP, TSB with 0.2% glucose, AH462, GFP
Experimental: (§3) AIP activation assays. Overnight cultures of S. aureus reporter strains were grown in TSB and sub-cultured 1:50 into TSB+0.2% glucose supplemented with indicated AIP (final volume […] concentration 50 nM). Cultures were grown in test tubes (13×100 mm) at 37° C. shaking at 250 rpm. Cell density and fluorescence was monitored using a Tecan GENios microtiter plate reader at 4, 6, 8, and 10 hours after inoculation.
(§4) In published reports, the addition of AIP samples results in a significant increase in the RNAIII levels (Ji et al., 1997). The inventors reasoned that the S. aureus media conditions are limiting the Agr response, allowing detection of AIP activation. Glucose is a common media component, and growth on glucose is known to repress RNAIII transcription (Regassa et al., 1992). When the reporter strains were grown in TSB with 0.2% glucose, the inventors observed an approximately 70% drop in GFP expression (data not shown). The addition of AIP to the glucose treated strains restores the maximal levels of RNAIII, creating a simple test for AIP activation.

[4] = test system: S. aureus Agr-II (AH430) reporter strain; assay: AIP activation assay, Agr-II reporter; format: cell-based; settings: 50 nM iAIP, TSB with 0.2% glucose, AH430, GFP
Experimental: as §3, §4

Substance | inhibition of quorum-sensing (GFP fluorescence) in Agr-II reporter strain (AH430 (Agr-II reporter); sample diluted 20-fold into AH430 culture, untreated sample) | Agr-II inhibition after hydroxylamine treatment of the sample (AH430 (Agr-II reporter); sample treated with hydroxylamine, opening the thiolactone ring, AH430) | Agr-II inhibition after base treatment of the sample (AH430 (Agr-II reporter); sample treated with sodium hydroxide base to open the thiolactone ring, neutralized with acid, AH430) | inhibition of quorum-sensing (GFP fluorescence) in Agr-III reporter strain [1] | inhibition of quorum-sensing (GFP fluorescence) in Agr-I reporter strain [2] | -fold activation over the TSB control, Agr-I reporter [3] | -fold activation over the TSB control, Agr-II reporter [4]
iAIP-I: intein-generated S. aureus AIP-I thiolactone peptide with an additional N-terminal methionine (MYSTCDFIM) (not fully specified (bridges); also: thiolactone, places not given here) | inhibited the quorum-sensing response in strain AH430 in a dose-dependent manner; also recorded: did inhibit activity | neither sample inhibited the Agr response | neither sample inhibited the Agr response | inhibited | did not inhibit quorum-sensing | 3.0 -fold | 
iAIP-II: intein-generated S. aureus AIP-II thiolactone peptide (GVNACSSLF), N-terminal methionine completely removed (not fully specified (bridges); also: thiolactone, places not given here) |  |  |  | inhibited quorum-sensing | inhibited quorum-sensing |  | 3.8 -fold
